Data on one compound can be found in patent US10265286B2, “Sequelae of cardiopulmonary bypass-induced pulmonary injury” (Vanderbilt University, priority 2016, dated 2019).

This experiment relates to human vascular endothelial cells. The experiment is described as follows: Nitric oxide production by cultured human vascular endothelial cells (FIG. 23). The format is cell-based. How it is done:
These agents were administered to cultured human vascular endothelial cells stimulated with acetylcholine. Measurement of nitric oxide was through a Seiver's system of nitrate/nitrites.

`N=C(N)NCCC[C@H](N)C(=O)O` [arginine]: the NO production result (applied directly to endothelial cell, very high concentrations (10 mM)) was “little sign of increased NO production”. In addition, for the setting “cells stimulated with acetylcholine, nitrate/nitrites by Seiver's system”, the “production of nitric oxide” value is recorded as “no effect on the production of nitric oxide”.
